Measured values: patent US10076491B2, “Vaccine composition” (NITTO DENKO CORPORATION, priority 2013, dated 2018)

System: IFN-γ-producing cells (spleen cells)
Assay: Mouse immunization test with cream formulation for transdermal administration, ELISPOT method (IFN-γ)
Assay type: in vivo
Settings: FIG. 1 / Table 2, combination with Th1 adjuvant imiquimod (IMQ), OVAp
Experimental: Spleen cells (3×10^6 cells/well) and an antigen peptide (100 μM) or an antigen protein (100 μg/mL) together with the culturing medium were placed into a well of an ELISPOT plate on which an anti-mouse IFN-γ antibody had been immobilized. The plate was cultured for 20 hours under the condition of 37° C. and 5% CO2. The number of the spots representing IFN-γ-producing cells (spot number/3×10^6 cells) was evaluated by the ELISPOT method.
Mouse Immunization Test with Cream Formulation for Transdermal Administration
Mouse immunization test was performed with the cream formulations prepared as described above using a model animal for immunological evaluation. The immunity induction level was evaluated by ELISPOT method. Specifically, the hair of the back of the mouse was cut, and the mouse was kept until it recovered from the skin damage due to the hair cutting. After that, 4 mg of each cream formulation was applied to the skin of the back of the mouse for 24 hours, and then removed. After 6 days, the level of the cellular immunity induction specific for the antigen was evaluated. Six days after the administration, the spleen of the mouse was removed to prepare a suspension of spleen cells. […] The number of the spot representing IFN-γ producing cells (spot number/3×10^6 cells) was evaluated by ELISPOT method.

| Structure (SMILES) | effect of combination of Th2 cell differentiation inhibitor and Th1 adjuvant (ELISPOT) |
| --- | --- |
| COc1ccc2cc3[n+](cc2c1OC)CCc1cc2c(cc1-3)OCO2 [berberine] | synergistic effect |
| CC(C(=O)O)c1ccc(CC2CCCC2=O)cc1 (centres unmarked) [loxoprofen] | synergistic effect |
